Where two headings read alike, the source gives them in different places.
Legend:
[1] = biological target: hCA II; settings: stopped-flow CO2 hydrase assay, mean of three assays; cited from earlier work
[2] = biological target: hCA IV; settings: stopped-flow CO2 hydrase assay, mean of three assays; cited from earlier work
[3] = biological target: hCA IX; settings: stopped-flow CO2 hydrase assay, mean of three assays; cited from earlier work
[4] = biological target: hCA I; settings: stopped-flow CO2 hydrase assay, mean of three assays; cited from earlier work
[5] = biological target: hCA XII; settings: stopped-flow CO2 hydrase assay, mean of three assays; cited from earlier work
[6] = test system: HCT-116; experiment: MTT antiproliferative assay, HCT-116 (normoxia and CoCl2-induced hypoxia); type: cell-based, human; settings: HCT-116; for IC50: Homo sapiens, MTT, 72 h
Protocol: (§1) These cell lines were cultured as monolayers in Dulbecco’s Modified Eagle’s Medium (DMEM) supplemented with 10% FBS, 2 mM l-glutamine, 100 U/mL penicillin, and 100 µg/mL streptomycin sulfate. […] The cells were sub-cultured using trypsin/EDTA solution, counted with a hemocytometer, and plated on 96-well plates (5000 cells/well), allowing them to form a semi-confluent monolayer overnight. […] DMSO (100 µL/well) was then added to dissolve the formazan crystals with shaking for 10 min, after which the absorb absorbance was read at 590 nm against no-cell blanks using a FLuo Star Optima microplate reader (BMG technologies, Ortenberg, Germany). Cell proliferation was calculated by comparing the OD values of the DMSO control wells with those of the samples, represented as % proliferation relative to the control.

[7] = test system: A549; experiment: Annexin V-FITC/PI dual staining apoptosis assay, A549; type: cell-based, human; settings: for Fold increase in overall apoptosis compared to untreated control: A549; for Early Apoptosis (Lower Right %) / Late Apoptosis (Upper Right %) / Total apoptosis: A549, treated at IC50 concentration
Protocol: (§2) Phosphatidylserine externalization was evaluated using the Annexin V-FITC/PI apoptosis detection kit (BD Biosciences, USA), following the manufacturer’s guidelines. […] Subsequently, the cells were re-suspended in 100 μL of binding buffer with the addition of 1 μL of FITC-Annexin V, followed by a 30-min incubation at 4 °C. After rinsing in binding buffer, the cells were resuspended in 150 μL of binding buffer with the addition of 1 μL of DAPI (1 μg/μL in PBS). Flow cytometry analysis was performed using the BD FACS Canto II flow cytometer and the results were interpreted with FlowJo7.6.4 software (Tree Star, Ashland, USA).

[8] = test system: A549; experiment: MTT antiproliferative assay, A549; type: cell-based; settings: Homo sapiens, normoxic conditions, 72 h
Protocol: The human triple-negative breast cancer cell line (MDA-MB-231), colon cancer cell line (HCT-116), and lung cancer cell line (A549) used in this study were obtained from the American Type Culture Collection (ATCC). These cell lines were cultured as monolayers in Dulbecco’s Modified Eagle’s Medium (DMEM) supplemented with 10% FBS, 2 mM l-glutamine, 100 U/mL penicillin, and 100 µg/mL streptomycin sulfate. […] The cells were sub-cultured using trypsin/EDTA solution, counted with a hemocytometer, and plated on 96-well plates (5000 cells/well), allowing them to form a semi-confluent monolayer overnight. […]. DMSO (100 µL/well) was then added to dissolve the formazan crystals with shaking for 10 min, after which the absorb absorbance was read at 590 nm against no-cell blanks using a FLuo Star Optima microplate reader (BMG technologies, Ortenberg, Germany). Cell proliferation was calculated by comparing the OD values of the DMSO control wells with those of the samples, represented as % proliferation relative to the control.

[9] = test system: HCT-116; experiment: Annexin V-FITC/PI dual staining apoptosis assay, HCT-116; type: cell-based, human; settings: for Fold increase in overall apoptosis compared to untreated control: HCT-116; for Early Apoptosis (Lower Right %) / Late Apoptosis (Upper Right %) / Total apoptosis: HCT-116, treated at IC50 concentration
Protocol: as §2

[10] = test system: A549; experiment: Cell cycle analysis by DNA flow cytometry, A549; type: cell-based, human; settings: A549, 24 h at IC50 concentration
Protocol: (§3) Following treatment, cells were washed twice with ice-cold phosphate-buffered saline (PBS). Subsequently, the treated cells were harvested through centrifugation, fixed in ice-cold 70% (v/v) ethanol, washed with PBS, re-suspended in 100 μg/mL RNase, stained with 40 μg/mL propidium iodide (PI), and subjected to flow cytometry analysis using FACS Calibur (Becton Dickinson, Franklin Lakes, NJ, USA). The cell cycle distributions were calculated using CellQuest software 5.1 (Becton Dickinson).

[11] = test system: MDA-MB-231; experiment: MTT antiproliferative assay, MDA-MB-231; type: cell-based; settings: Homo sapiens, normoxic conditions, 72 h
Protocol: as §1

[12] = test system: hCA IX; experiment: Stopped-flow CO2 hydrase inhibition assay, hCA IX; type: biochemical, human; settings: ratio of KIs
Protocol: (§4) An Applied Photophysics stopped-flow instrument (Applied Photophysics Ltd, Leatherhead, UK) was used for assaying the CA-catalyzed CO2 hydration activity. Phenol red (at a concentration of 0.2 mM) was used as an indicator, working at the absorbance maximum of 557 nm, with 20 mM Hepes (pH 7.5) as a buffer and 20 mM Na2SO4 for maintaining constant the ionic strength, following the initial rates of the CA-catalyzed CO2 hydration reaction for a period of 10−100 s. The CO2 concentrations ranged from 1.7 to 17 mM for the determination of the kinetic parameters and inhibition constants. For each inhibitor, at least six traces of the initial 5−10% of the reaction were used for determining the initial velocity. The uncatalyzed rates were determined in the same manner and subtracted from the total observed rates. Stock solutions of inhibitor (0.1 mM) were prepared in distilled−deionized water and dilutions up to 0.01 nM were made thereafter with the assay buffer. Inhibitor and enzyme solutions were preincubated together for 15 min at room temperature before the assay to allow for the formation of the E−I complex. The inhibition constants were obtained by nonlinear least-squares methods using Prism 7 (GraphPad Software, La Jolla, CA, USA) and the Cheng−Prusoff equation and represent the mean of at least three different determinations. The enzyme concentrations were in the range of 3–11 nM. All hCA isoforms were recombinant ones obtained in-house.

[13] = test system: hCA XII; experiment: Stopped-flow CO2 hydrase inhibition assay, hCA XII; type: biochemical, human; settings: ratio of KIs
Protocol: as §4

[14] = test system: HCT-116; experiment: Cell cycle analysis by DNA flow cytometry, HCT-116; type: cell-based, human; settings: HCT-116, 24 h at IC50 concentration
Protocol: as §3

[15] = compound 150 µM, rat liver homogenate, 37 °C; cited from earlier work
[16] = chemically induced hypoxia with CoCl2·6H2O, read-out: IC50 HCT-116 (Hypoxia)
[17] = normoxic conditions, read-out: IC50 HCT-116 (Normoxia)

In the case of `NS(=O)(=O)c1ccc(CCN(Cc2ccccc2)C(=O)c2ccc(-c3cssc3=S)cc2)cc1` [Compound 19], the Ki [1] is listed as 0.48 µM, the Ki [2] is listed as 4.34 µM and the Ki [3] is listed as 0.043 µM. For the same compound, the Ki [4] was 0.771 µM and the Ki [5] was 0.0097 µM.
For `NS(=O)(=O)c1ccc(CCN(Cc2ccc(F)cc2)C(=O)c2ccc(-c3cssc3=S)cc2)cc1` [Compound 20], the Ki [1] is given as 0.6 µM, the Ki [2] is given as > 10 µM and the Ki [3] is given as 0.0463 µM. For the same compound, the Ki [4] was 5.32 µM and the Ki [5] was 0.0653 µM.
In the case of `NS(=O)(=O)c1ccc(CCN(Cc2ccc(Cl)cc2)C(=O)c2ccc(-c3cssc3=S)cc2)cc1` [Compound 21], the Ki [1] is listed as 2.97 µM, the Ki [2] is listed as 0.43 µM and the Ki [3] is listed as 0.024 µM. The Ki [4] was 5.5 µM and the Ki [5] was 0.0098 µM.
In the case of `N#Cc1ccc(CN(CCc2ccc(S(N)(=O)=O)cc2)C(=O)c2ccc(-c3cssc3=S)cc2)cc1` [Compound 23], the “IC50 Normoxia / IC50 Hypoxia” value [6] is reported as 0.3, the IC50 [6, 16] is reported as 4.27 ± 0.08 µM and the IC50 [6, 17] is reported as 1.24 ± 0.04 µM. The “Fold increase in overall apoptosis compared to untreated control” value (“Fold increase in overall apoptosis” for short) [7] was 14.2 fold, the “Early Apoptosis (Lower Right %)” value [7] was 6.91% and the “Late Apoptosis (Upper Right %)” value [7] was 10.13%. The Total apoptosis [7] was 17.04%, the IC50 [8] was 4.53 ± 0.12 µM and the “Fold increase in overall apoptosis” value [9] was 37.2 fold. The “Early Apoptosis (Lower Right %)” value [9] was 7.69%, the “Late Apoptosis (Upper Right %)” value [9] was 21.33% and the Total apoptosis [9] was 29.02%. The Ki [1] was 4.83 µM, the “%G0-G1” value [10] was 29.65% and the “%G2/M” value [10] was 28.09%. The “%S” value [10] was 26.28%, the “%Sub-G1” value [10] was 15.98% and the IC50 [11] was 1.53 ± 0.04 µM. The “hCA II/hCA IX selectivity ratio” value [12] was 120, the Ki [3] was 0.0403 µM and the “hCA II/hCA XII selectivity ratio” value [13] was 548. For the same compound, the Ki [4] was > 10 µM, the Ki [5] was 0.0088 µM and the “%G0-G1” value [14] was 20.35%. The “%G2/M” value [14] was 32.2%, the “%S” value [14] was 23.29% and the “%Sub-G1” value [14] was 24.16%.
In the case of `CN(C)c1ccc(CN(CCc2ccc(S(N)(=O)=O)cc2)C(=O)c2ccc(-c3cssc3=S)cc2)cc1` [Compound 24], the Ki [1] is listed as 0.995 µM, the Ki [2] is listed as 3.41 µM and the Ki [3] is listed as 0.0227 µM. The Ki [4] was 4.26 µM and the Ki [5] was 0.0095 µM.
For `NS(=O)(=O)c1ccc(CCN(Cc2ccc([N+](=O)[O-])cc2)C(=O)c2ccc(-c3cssc3=S)cc2)cc1` [Compound 25], the Ki [1] is given as 0.919 µM, the Ki [2] is given as > 10 µM and the Ki [3] is given as 0.0366 µM. The Ki [4] was 7.45 µM and the Ki [5] was 0.0329 µM.
With `COc1cc([N+](=O)[O-])ccc1CN(CCc1ccc(S(N)(=O)=O)cc1)C(=O)c1ccc(-c2cssc2=S)cc1` [Compound 26] the “IC50 Normoxia / IC50 Hypoxia” value [6] was 0.6, the IC50 [6, 16] was 3.73 ± 0.07 µM and the IC50 [6, 17] was 2.3 ± 0.072 µM. For the same compound, the “Fold increase in overall apoptosis” value [7] was 13.1 fold, the “Early Apoptosis (Lower Right %)” value [7] was 6.47% and the “Late Apoptosis (Upper Right %)” value [7] was 9.3%. The Total apoptosis [7] was 15.77%, the IC50 [8] was 7.47 ± 0.31 µM and the “Fold increase in overall apoptosis” value [9] was 24.5 fold. The “Early Apoptosis (Lower Right %)” value [9] was 4.13%, the “Late Apoptosis (Upper Right %)” value [9] was 14.96% and the Total apoptosis [9] was 19.09%. The “H2S release half-life t/2” value [15] was 4.9 min, the Ki [1] was 2.95 µM and the Ki [2] was 4.09 µM. For the same compound, the “%G0-G1” value [10] was 29.49%, the “%G2/M” value [10] was 33.05% and the “%S” value [10] was 22.54%. The “%Sub-G1” value [10] was 14.92%, the IC50 [11] was 10.4 ± 0.61 µM and the “hCA II/hCA IX selectivity ratio” value [12] was 719. For the same compound, the Ki [3] was 0.0041 µM, the “hCA II/hCA XII selectivity ratio” value [13] was 383 and the Ki [4] was 6.7 µM. For the same compound, the Ki [5] was 0.0077 µM, the “%G0-G1” value [14] was 27.14% and the “%G2/M” value [14] was 30.29%. The “%S” value [14] was 24.13% and the “%Sub-G1” value [14] was 18.44%.

Reference: publication PMC11432087, “Hydrogen Sulfide-Releasing Carbonic Anhydrase Inhibitors Effectively Suppress Cancer Cell Growth” (International Journal of Molecular Sciences, 2024)
